# Measured values published in patent US9597417B2, “Compositions and methods to evaluate hepatobiliary/gastrointestinal health, enterohepatic circulation, and drug interactions” (The United States of America as represented by the …, priority 2013, dated 2017).
# “And” between values parts separate entries of the source, which are not always exact repeats. Equal values may be shown once. “Also recorded” adds a separate entry of the source. Read-outs that look alike come from different tables or passages of the source.
# T1: human apical sodium dependent bile acid transporter (hASBT) (Homo sapiens, UniProt Q12908)
# T1 sequence (Q12908 1-348): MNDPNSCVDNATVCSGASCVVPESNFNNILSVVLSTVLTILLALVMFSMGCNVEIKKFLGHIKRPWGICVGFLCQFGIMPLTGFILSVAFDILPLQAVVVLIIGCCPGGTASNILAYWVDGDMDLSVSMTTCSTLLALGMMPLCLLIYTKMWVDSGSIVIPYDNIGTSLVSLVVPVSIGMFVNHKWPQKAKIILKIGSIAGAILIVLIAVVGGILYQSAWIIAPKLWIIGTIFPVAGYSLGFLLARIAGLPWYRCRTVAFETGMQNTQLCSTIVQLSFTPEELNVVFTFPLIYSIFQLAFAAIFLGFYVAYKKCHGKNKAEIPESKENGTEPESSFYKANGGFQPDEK
# T2: human Na+/taurocholate cotransporting polypeptide (hNTCP) (Homo sapiens, UniProt Q14973)
# T2 sequence (Q14973 1-349): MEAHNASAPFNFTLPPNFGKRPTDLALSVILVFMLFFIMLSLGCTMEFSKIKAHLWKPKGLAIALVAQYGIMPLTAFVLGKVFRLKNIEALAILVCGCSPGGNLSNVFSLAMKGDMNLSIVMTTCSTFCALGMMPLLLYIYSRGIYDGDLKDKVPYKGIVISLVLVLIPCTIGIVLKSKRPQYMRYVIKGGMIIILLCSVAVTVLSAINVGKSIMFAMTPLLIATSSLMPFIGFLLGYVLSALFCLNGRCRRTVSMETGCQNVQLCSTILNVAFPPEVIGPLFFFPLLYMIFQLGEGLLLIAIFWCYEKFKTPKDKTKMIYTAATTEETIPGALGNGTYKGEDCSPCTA
# T3: hASBT (sodium-independent passive uptake) (Homo sapiens, UniProt Q12908)
# T3 sequence (Q12908 1-348): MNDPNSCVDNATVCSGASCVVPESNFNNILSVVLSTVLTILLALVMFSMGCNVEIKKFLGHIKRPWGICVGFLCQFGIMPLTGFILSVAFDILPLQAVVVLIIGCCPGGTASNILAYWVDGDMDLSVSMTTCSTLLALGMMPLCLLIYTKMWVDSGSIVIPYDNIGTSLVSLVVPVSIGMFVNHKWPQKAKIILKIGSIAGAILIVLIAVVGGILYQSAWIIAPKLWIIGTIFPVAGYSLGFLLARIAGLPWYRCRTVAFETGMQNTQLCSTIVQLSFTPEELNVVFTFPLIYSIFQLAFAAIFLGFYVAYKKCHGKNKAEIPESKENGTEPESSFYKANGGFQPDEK
# T4: hNTCP (sodium-independent passive uptake) (Homo sapiens, UniProt Q14973)
# T4 sequence (Q14973 1-349): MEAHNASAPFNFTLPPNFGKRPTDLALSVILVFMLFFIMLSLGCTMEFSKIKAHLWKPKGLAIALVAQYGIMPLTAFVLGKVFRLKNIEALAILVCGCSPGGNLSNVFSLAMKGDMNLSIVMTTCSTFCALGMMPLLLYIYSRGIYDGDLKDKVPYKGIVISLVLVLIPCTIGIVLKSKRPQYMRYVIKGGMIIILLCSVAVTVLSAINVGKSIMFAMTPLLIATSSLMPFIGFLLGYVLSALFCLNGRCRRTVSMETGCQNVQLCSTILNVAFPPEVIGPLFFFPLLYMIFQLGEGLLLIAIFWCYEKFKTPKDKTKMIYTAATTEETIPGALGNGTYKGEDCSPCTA
# Key:
# [1] = target: T1, human apical sodium dependent bile acid transporter (hASBT); experiment: Inhibition of taurocholate uptake by ASBT in stably transfected ASBT-MDCK cells; format: cell-based
# [2] = target: T2, human Na+/taurocholate cotransporting polypeptide (hNTCP); experiment: Inhibition of taurocholate uptake by NTCP in stably transfected NTCP-HEK cells; format: cell-based
# [3] = target: T3, hASBT (sodium-independent passive uptake); experiment: Uptake of substrate by ASBT in ASBT-MDCK cells; format: cell-based; conditions: human; ASBT-MDCK cells, sodium free buffer; read-out: passive permeability (Pp)
# [4] = target: T1, human apical sodium dependent bile acid transporter (hASBT); experiment: Uptake of substrate by ASBT in ASBT-MDCK cells; format: cell-based; conditions: ASBT uptake
# [5] = target: T4, hNTCP (sodium-independent passive uptake); experiment: Uptake of substrate by NTCP in NTCP-HEK cells; format: cell-based; conditions: human; NTCP-HEK cells, sodium free buffer; read-out: passive permeability (Pp)
# [6] = target: T2, human Na+/taurocholate cotransporting polypeptide (hNTCP); experiment: Uptake of substrate by NTCP in NTCP-HEK cells; format: cell-based; conditions: NTCP uptake
# [7] = Solubility in buffer; format: physicochemical; conditions: phosphate buffer, aqueous buffer, thermodynamic from solid; pH 6.8, room temperature, overnight, n=3, ±SEM
# Protocol: Five (5) mg of compound was added to silanized centrifuge tubes containing 100 μL phosphate buffer at pH 6.8 (n=3), shaken, and left overnight at room temperature. […] Supernatant was diluted 10,000-fold with 1:1 ACN:water and analyzed by LC/MS/MS.
# [8] = Murine gallbladder imaging (mouse 6), 19F MRI and LC/MS/MS; format: in vivo, C57BL/6 mice; conditions: for concentration at 8.2 h: male, mouse 6, after imaging
# [9] = Disposition in Asbt knockout (Slc10a2-/-) and wild-type mice; format: in vivo; conditions: for gallbladder concentration / concentration at 7 h: n=4, 7 h after gavage 150 mg/kg, ±SEM; for gallbladder concentration: LC/MS/MS; for concentration at 7 h: mouse, oral, 150 mg/kg
# Protocol: Asbt-deficient (Slc10a2-/-) mice were obtained from a colony maintained at the Wake Forest School of Medicine. […] Gallbladder, liver, and plasma samples were collected at 7 h after dosing, and tissues were processed as described above and analyzed by LC/MS/MS.
# [10] = target: choloylglycine hydrolase from Clostridium perfringens (Clostridium perfringens, UniProt P54965); conditions: 2 mM compound, 15 U CGH, pH 5.6, 37° C., ±SEM
# choloylglycine hydrolase from Clostridium perfringens, sequence (P54965 whole entry, looked up): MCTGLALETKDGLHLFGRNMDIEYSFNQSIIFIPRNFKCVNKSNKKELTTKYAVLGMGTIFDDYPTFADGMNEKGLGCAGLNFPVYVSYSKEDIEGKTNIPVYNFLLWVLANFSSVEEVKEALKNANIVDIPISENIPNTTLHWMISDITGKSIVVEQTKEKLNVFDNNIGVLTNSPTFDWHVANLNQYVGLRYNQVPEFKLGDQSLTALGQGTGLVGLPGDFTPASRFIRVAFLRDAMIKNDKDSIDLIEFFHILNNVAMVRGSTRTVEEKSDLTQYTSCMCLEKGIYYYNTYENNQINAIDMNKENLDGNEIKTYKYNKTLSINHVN
# [11] = Oral disposition characterization: pilot study in mice; conditions: for concentration at 7 h: male, C57BL/6, mouse, po
# [12] = In vitro stability in 0.1 M HCl, rat plasma, rat liver s9 fraction and simulated intestinal fluid; conditions: 37° C.
# [13] = target: T2, human Na+/taurocholate cotransporting polypeptide (hNTCP); conditions: literature / historic data, same cell line; read-out: NTCP Km; cited from earlier work
# [14] = substrate: [H][C@@]12C[C@H](O)CC[C@]1(C)[C@@]1([H])C[C@H](O)[C@@]3(C)[C@@]([H])(CC[C@]3([H])C(C)CCC(=O)N(CCNC(=O)C(F)(F)F)CC(=O)O)[C@]1([H])[C@H](O)C2; experiment: Uptake of substrate by ASBT in ASBT-MDCK cells; format: cell-based, human; conditions: other: uptake, 0-200 uM donor, hASBT-MDCK cells, ±SEM; 37.0 °C
# [15] = substrate: [H][C@@]12C[C@H](O)CC[C@]1(C)[C@@]1([H])C[C@H](O)[C@@]3(C)[C@@]([H])(CC[C@]3([H])C(C)CCC(=O)N(CCNC(=O)C(F)(F)F)CC(=O)O)[C@]1([H])[C@H](O)C2; experiment: Uptake of substrate by NTCP in NTCP-HEK cells; format: cell-based, human; conditions: other: uptake, 0-200 uM donor, hNTCP-HEK cells, ±SEM; 37.0 °C
# [16] = individual mice 1-5, 7 h after oral 150 mg/kg, LC/MS/MS, 150 mg/kg
molecule,measurement,setting,value
"CC(CCC(=O)N(CCNC(=O)C(F)(F)F)CC(=O)O)[C@H]1CC[C@H]2[C@@H]3[C@H](O)C[C@@H]4C[C@H](O)CC[C@]4(C)[C@H]3C[C@H](O)[C@]12C (stereo partly shown) [CA-sar-TFMA, Cholic acid-sarcosine-trifluoro-N-methyl-acetamide]",Ki,[1],21.5 ± 4 µM
same,Ki,[2],2.64 ± 0.55 µM
same,Papp,[3],0.21 ×10⁻⁶ cm/s
same,normVmax (normalized to taurocholate Vmax on the same occasion),[4],1.50
same,Papp,[5],0.043 ×10⁻⁶ cm/s
same,normVmax (normalized to taurocholate Vmax on the same occasion),[6],0.24
same,solubility,[7],33500 ± 1600 µM
same,concentration at 8.2 h,"[8]; C57BL/6, liver, oral 150 mg/kg, read-out: liver concentration",7660 nM
same,concentration at 8.2 h,"[8]; C57BL/6, plasma, oral 150 mg/kg, read-out: plasma concentration",870 nM
same,"LC/MS/MS gallbladder concentration, fold lower than by MRI",[8]; mouse 6,2.3 fold
same,gallbladder concentration by 19F MRI (gallbladder ROI normalized to phantom ROI),"[8]; mouse 6, 6.2-8.2 h after oral gavage of 150 mg/kg",34.2 mM
same,gallbladder concentration by LC/MS/MS,"[8]; mouse 6, after imaging and euthanasia, oral 150 mg/kg",14.8 mM
same,"gallbladder concentration, fold higher in WT than in knockout mice",[9]; 7 h after gavage 150 mg/kg,16.1 fold
same,gallbladder concentration,[9]; Asbt knockout (Slc10a2-/-) mice,0.41 ± 0.14 mM
same,concentration at 7 h,"[9]; liver, Asbt knockout mice, read-out: Liver concentration",900 ± 30 nM
same,concentration at 7 h,"[9]; liver, WT mice, read-out: Liver concentration",4970 ± 1470 nM
same,concentration at 7 h,"[9]; plasma, Asbt knockout mice, read-out: Plasma concentration",220 ± 90 nM
same,concentration at 7 h,"[9]; plasma, WT mice, read-out: Plasma concentration",3800 ± 4150 nM
same,gallbladder concentration,[9]; wild-type (WT) mice,6.61 ± 0.98 mM
same,compound remaining after 4 h,[10],103.9±2.9%
same,Gallbladder Conc.,[11]; [16],16.5 mM (2×) and 25.0 mM and 17.2 mM and 16.9 mM
same,Liver Conc.,[11]; [16],20.8 µM and 16.0 µM and 12.9 µM and 9.5 µM and 13.5 µM
same,Plasma Conc.,[11]; [16],1490 nM and 1810 nM and 940 nM and 1470 nM
same,concentration at 7 h,"[11]; liver, 150 mg/kg, Average liver concentration, mean of mice 1-5, 7 h after oral 150 mg/kg, ±SEM",14500 ± 600 nM
same,concentration at 7 h,"[11]; plasma, 150 mg/kg, Average plasma concentration, mean of mice 1-5, 7 h after oral 150 mg/kg, ±SEM",1400 ± 140 nM
same,concentration at 7 h,"[11]; plasma, 150 mg/kg, Plasma Conc., individual mice 1-5, 7 h after oral 150 mg/kg, LC/MS/MS",1310 nM
same,Average gallbladder concentration,"[11]; mean of mice 1-5, 7 h after oral 150 mg/kg, ±SEM",18.4 ± 1.6 mM
same,"accumulation in liver and plasma, fold lower than in gallbladder","[11]; on average, 7 h after oral 150 mg/kg","at least 1,000 fold"
same,stability: concentration at t=4 h vs initial concentration,"[12]; 0.1 M HCl, 5 μM",no evidence of degradation; also recorded: not different from initial concentration
same,stability: concentration at t=4 h vs initial concentration,"[12]; rat plasma, 5 μM",no evidence of degradation; also recorded: not different from initial concentration
same,stability: concentration at t=4 h vs initial concentration,"[12]; simulated intestinal fluid with pancreatic enzymes (SIF), pH 7.5, 5 μM",no evidence of degradation; also recorded: not different from initial concentration
C[C@H](CCC(=O)NCCS(=O)(=O)O)[C@H]1CC[C@H]2[C@@H]3[C@H](O)C[C@@H]4C[C@H](O)CC[C@]4(C)[C@H]3C[C@H](O)[C@]12C [taurocholate],Km,[13],5.31 µM
human apical sodium dependent bile acid transporter (hASBT) (Homo sapiens) (protein) MNDPNSCVDNATVCSGASCVVPESNFNNILSVVLSTVLTILLALVMFSMGCNVEIKKFLGHIKRPWGICVGFLCQFGIMPLTGFILSVAFDILPLQAVVVLIIGCCPGGTASNILAYWVDGDMDLSVSMTTCSTLLALGMMPLCLLIYTKMWVDSGSIVIPYDNIGTSLVSLVVPVSIGMFVNHKWPQKAKIILKIGSIAGAILIVLIAVVGGILYQSAWIIAPKLWIIGTIFPVAGYSLGFLLARIAGLPWYRCRTVAFETGMQNTQLCSTIVQLSFTPEELNVVFTFPLIYSIFQLAFAAIFLGFYVAYKKCHGKNKAEIPESKENGTEPESSFYKANGGFQPDEK,Km,[14],73.2 ± 7.0 µM
human Na+/taurocholate cotransporting polypeptide (hNTCP) (Homo sapiens) (protein) MEAHNASAPFNFTLPPNFGKRPTDLALSVILVFMLFFIMLSLGCTMEFSKIKAHLWKPKGLAIALVAQYGIMPLTAFVLGKVFRLKNIEALAILVCGCSPGGNLSNVFSLAMKGDMNLSIVMTTCSTFCALGMMPLLLYIYSRGIYDGDLKDKVPYKGIVISLVLVLIPCTIGIVLKSKRPQYMRYVIKGGMIIILLCSVAVTVLSAINVGKSIMFAMTPLLIATSSLMPFIGFLLGYVLSALFCLNGRCRRTVSMETGCQNVQLCSTILNVAFPPEVIGPLFFFPLLYMIFQLGEGLLLIAIFWCYEKFKTPKDKTKMIYTAATTEETIPGALGNGTYKGEDCSPCTA,Km,[15],2.19 ± 0.63 µM
